The structures appear in SMILES notation.

Consider two compounds from ChEMBL document CHEMBL2073906, “Interactions of ofloxacin and erythromycin with the multidrug resistance protein (MRP) in MRP-overexpressing human leukemia cells” (Antimicrob Agents Chemother, 2000).

The target of data set [1] is T1, Multidrug resistance-associated protein 1 (Homo sapiens, UniProt P33527). Briefly: TP_TRANSPORTER: increase in Vincristine intracellular accumulation (Vincristine: 0.03 uM, Erythromycin: 14.7 mg/mL) in HL60R cells: flow cytometric analysis. Type of data set: functional, cell-based. In general terms: A flow cytometer gives signals particle by particle.
In data set [2] the target is T1, Multidrug resistance-associated protein 1. In words: TP_TRANSPORTER: increase in Vincristine intracellular accumulation (Vincristine: 0.03 uM, Ofloxacin: 21.7 mg/mL) in HL60R cells: flow cytometric analysis. Type of data set: functional, cell-based.

T1 sequence (P33527 whole entry): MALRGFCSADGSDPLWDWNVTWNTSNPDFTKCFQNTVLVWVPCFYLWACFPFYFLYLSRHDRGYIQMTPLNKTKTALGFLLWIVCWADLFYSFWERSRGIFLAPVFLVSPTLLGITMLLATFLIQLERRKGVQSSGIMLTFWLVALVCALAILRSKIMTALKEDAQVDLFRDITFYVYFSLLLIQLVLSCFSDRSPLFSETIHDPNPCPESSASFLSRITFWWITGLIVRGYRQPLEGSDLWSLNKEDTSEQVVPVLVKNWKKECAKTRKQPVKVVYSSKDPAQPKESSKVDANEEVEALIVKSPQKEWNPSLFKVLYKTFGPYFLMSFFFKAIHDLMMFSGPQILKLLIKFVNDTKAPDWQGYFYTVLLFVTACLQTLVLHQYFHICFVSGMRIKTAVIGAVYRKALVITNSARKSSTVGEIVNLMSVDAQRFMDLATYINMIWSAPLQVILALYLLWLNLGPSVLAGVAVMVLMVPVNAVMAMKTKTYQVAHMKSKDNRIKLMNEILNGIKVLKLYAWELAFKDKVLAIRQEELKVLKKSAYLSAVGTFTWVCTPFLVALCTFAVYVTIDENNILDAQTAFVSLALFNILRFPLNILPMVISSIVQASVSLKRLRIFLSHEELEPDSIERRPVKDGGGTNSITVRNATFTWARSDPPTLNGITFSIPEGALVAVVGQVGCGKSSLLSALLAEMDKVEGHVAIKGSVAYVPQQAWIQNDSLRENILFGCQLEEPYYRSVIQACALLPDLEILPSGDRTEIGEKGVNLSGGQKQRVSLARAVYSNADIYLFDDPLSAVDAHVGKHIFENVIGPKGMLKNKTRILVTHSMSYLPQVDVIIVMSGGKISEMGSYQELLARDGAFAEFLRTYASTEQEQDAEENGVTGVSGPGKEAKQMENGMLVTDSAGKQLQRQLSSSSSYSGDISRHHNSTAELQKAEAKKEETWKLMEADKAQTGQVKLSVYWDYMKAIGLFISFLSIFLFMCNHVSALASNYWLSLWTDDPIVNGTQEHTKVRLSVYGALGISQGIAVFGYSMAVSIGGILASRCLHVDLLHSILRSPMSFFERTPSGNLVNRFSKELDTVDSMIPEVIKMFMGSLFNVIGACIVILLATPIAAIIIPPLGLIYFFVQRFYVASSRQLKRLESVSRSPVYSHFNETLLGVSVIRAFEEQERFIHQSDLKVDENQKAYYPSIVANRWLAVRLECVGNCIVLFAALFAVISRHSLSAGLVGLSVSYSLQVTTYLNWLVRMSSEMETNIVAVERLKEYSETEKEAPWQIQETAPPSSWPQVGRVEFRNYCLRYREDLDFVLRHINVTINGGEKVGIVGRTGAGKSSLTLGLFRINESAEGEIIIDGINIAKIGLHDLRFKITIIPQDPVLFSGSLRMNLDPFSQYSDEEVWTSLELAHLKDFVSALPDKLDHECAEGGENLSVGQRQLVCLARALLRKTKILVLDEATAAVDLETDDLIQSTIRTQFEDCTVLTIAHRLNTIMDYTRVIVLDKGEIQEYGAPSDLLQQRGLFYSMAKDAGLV

With `CC[C@H]1OC(=O)[C@H](C)[C@@H](O[C@H]2C[C@@](C)(OC)[C@@H](O)[C@H](C)O2)[C@H](C)[C@@H](O[C@@H]2O[C@H](C)C[C@H](N(C)C)[C@H]2O)[C@](C)(O)C[C@@H](C)C(=O)[C@H](C)[C@@H](O)[C@]1(C)O` [ERYTHROMYCIN], in data set [1], the Activity is on record as 0.16.
In data set [2], `CC1COc2c(N3CCN(C)CC3)c(F)cc3c(=O)c(C(=O)O)cn1c23` (configuration not stated) [OFLOXACIN] had an Activity of 0.29.
